# Data reported in the kinase profiling compilation of Christmann-Franck et al. (2016).
# Assays:
# Test in all cases: radiometric filter-binding kinase assay, Kinase HotSpot
# Settings in all cases: compound 0.5 µM; ATP 10 µM
# DSTYK (human) = DSTYK (human) (UniProt Q6XUX3)
# FYN (human) = FYN (human) (UniProt P06241)
# MINK1 (human) = MINK1 (human) (UniProt Q8N4C8)
# RPS6KA6 KD1 KD2 (human) = RPS6KA6 KD1 KD2 (human) (UniProt Q9UK32)
# NUAK1 (human) = NUAK1 (human) (UniProt O60285)
# CAMK2B (human) = CAMK2B (human) (UniProt Q13554)
# [1] = test system: FLT4 (human), P35916 [Q890H]
# PTK2B (human) = PTK2B (human) (UniProt Q14289)
# WNK2 (human) = WNK2 (human) (UniProt Q9Y3S1)
# PHKG1 (human) = PHKG1 (human) (UniProt Q16816)
# [2] = test system: MAP2K6 (human), P52564 [S207E/T211E]
# AKT1 (human) = AKT1 (human) (UniProt P31749)
# STK11 (human) = STK11 (human) (UniProt Q15831)
# NEK11 (human) = NEK11 (human) (UniProt Q8NG66)
# CDK2 CCNA2 (human) = CDK2 CCNA2 (human) (UniProt P24941+P20248)
# MAP3K5 (human) = MAP3K5 (human) (UniProt Q99683)
# ACVRL1 (human) = ACVRL1 (human) (UniProt P37023)
# FGFR3 (human) = FGFR3 (human) (UniProt P22607)
# CAMK2A (human) = CAMK2A (human) (UniProt Q9UQM7)
# PAK7 (human) = PAK7 (human) (UniProt Q9P286)
# ROCK2 (human) = ROCK2 (human) (UniProt O75116)
# MERTK (human) = MERTK (human) (UniProt Q12866)
# MAPK14 (human) = MAPK14 (human) (UniProt Q16539)
# STK25 (human) = STK25 (human) (UniProt O00506)
# BRSK1 (human) = BRSK1 (human) (UniProt Q8TDC3)
# FGFR1 (human) = FGFR1 (human) (UniProt P11362)
# ZAP70 (human) = ZAP70 (human) (UniProt P43403)
# [3] = target: TYK2 JH1 catalytic (human) (UniProt P29597)
# DYRK4 (human) = DYRK4 (human) (UniProt Q9NR20)
# FRK (human) = FRK (human) (UniProt P42685)
# PAK4 (human) = PAK4 (human) (UniProt O96013)
# DYRK2 (human) = DYRK2 (human) (UniProt Q92630)
# MAPK8 (human) = MAPK8 (human) (UniProt P45983)
# ITK (human) = ITK (human) (UniProt Q08881)
# CLK1 (human) = CLK1 (human) (UniProt P49759)
# ABL2 (human) = ABL2 (human) (UniProt P42684)
# MAPK3 (human) = MAPK3 (human) (UniProt P27361)
# GRK7 (human) = GRK7 (human) (UniProt Q8WTQ7)
# STK10 (human) = STK10 (human) (UniProt O94804)
# STK24 (human) = STK24 (human) (UniProt Q9Y6E0)
# NEK2 (human) = NEK2 (human) (UniProt P51955)
# Sequence of CAMK2B (human) (Q13554 whole entry, looked up): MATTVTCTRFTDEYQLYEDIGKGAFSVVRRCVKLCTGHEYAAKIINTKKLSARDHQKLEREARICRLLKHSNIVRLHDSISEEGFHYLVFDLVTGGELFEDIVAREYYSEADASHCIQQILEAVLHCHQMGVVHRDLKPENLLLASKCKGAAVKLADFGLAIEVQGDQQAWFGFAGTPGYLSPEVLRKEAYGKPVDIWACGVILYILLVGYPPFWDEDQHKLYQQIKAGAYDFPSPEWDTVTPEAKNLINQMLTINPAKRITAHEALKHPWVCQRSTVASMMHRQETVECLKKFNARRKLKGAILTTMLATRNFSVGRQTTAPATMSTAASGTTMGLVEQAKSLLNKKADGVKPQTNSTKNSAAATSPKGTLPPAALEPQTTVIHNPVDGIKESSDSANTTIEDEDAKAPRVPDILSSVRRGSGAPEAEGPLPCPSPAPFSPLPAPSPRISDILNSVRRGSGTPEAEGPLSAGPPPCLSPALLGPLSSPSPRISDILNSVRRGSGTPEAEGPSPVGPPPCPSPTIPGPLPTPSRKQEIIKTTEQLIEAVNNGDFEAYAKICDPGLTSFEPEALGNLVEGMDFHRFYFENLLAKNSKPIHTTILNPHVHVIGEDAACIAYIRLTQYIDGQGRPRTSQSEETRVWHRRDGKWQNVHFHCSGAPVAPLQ
# Sequence of MAPK14 (human) (Q16539 whole entry, looked up): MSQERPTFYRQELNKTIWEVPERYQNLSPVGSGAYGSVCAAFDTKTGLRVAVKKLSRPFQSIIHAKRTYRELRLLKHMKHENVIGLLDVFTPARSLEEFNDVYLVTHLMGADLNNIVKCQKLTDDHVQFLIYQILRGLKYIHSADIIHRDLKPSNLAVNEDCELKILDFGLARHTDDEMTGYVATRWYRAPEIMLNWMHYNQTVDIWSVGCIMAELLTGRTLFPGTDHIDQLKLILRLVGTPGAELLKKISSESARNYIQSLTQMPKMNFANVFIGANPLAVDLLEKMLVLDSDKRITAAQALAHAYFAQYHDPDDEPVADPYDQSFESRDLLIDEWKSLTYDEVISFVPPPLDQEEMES
# Sequence of MAPK3 (human) (P27361 whole entry, looked up): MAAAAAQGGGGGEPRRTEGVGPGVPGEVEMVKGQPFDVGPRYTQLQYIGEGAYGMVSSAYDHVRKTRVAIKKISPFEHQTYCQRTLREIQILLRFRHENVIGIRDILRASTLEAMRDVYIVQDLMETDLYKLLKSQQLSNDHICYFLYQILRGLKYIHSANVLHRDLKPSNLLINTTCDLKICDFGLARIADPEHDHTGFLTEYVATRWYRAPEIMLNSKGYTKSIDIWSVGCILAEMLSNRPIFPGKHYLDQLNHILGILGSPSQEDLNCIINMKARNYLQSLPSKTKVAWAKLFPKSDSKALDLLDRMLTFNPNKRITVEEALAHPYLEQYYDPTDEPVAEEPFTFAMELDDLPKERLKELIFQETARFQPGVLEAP
# Sequence of NUAK1 (human) (O60285 whole entry, looked up): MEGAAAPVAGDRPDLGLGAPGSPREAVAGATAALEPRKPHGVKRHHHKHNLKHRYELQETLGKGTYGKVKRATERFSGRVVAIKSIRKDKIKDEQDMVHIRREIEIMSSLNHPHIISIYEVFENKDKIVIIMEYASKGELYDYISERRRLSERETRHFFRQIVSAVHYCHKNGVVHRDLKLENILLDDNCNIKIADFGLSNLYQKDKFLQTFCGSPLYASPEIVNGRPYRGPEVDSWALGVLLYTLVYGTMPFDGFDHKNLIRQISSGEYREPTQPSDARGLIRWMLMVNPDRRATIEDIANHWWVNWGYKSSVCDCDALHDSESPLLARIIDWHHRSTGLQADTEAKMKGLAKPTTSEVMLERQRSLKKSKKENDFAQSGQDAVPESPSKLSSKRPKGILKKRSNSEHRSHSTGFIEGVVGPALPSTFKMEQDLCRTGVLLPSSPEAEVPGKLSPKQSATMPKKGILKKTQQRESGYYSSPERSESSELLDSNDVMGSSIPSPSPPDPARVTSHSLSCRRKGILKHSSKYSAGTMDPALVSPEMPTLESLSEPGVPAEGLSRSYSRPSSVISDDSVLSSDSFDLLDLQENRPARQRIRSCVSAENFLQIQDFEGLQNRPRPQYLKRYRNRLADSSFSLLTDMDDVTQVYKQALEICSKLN
# Sequence of STK10 (human) (O94804 whole entry, looked up): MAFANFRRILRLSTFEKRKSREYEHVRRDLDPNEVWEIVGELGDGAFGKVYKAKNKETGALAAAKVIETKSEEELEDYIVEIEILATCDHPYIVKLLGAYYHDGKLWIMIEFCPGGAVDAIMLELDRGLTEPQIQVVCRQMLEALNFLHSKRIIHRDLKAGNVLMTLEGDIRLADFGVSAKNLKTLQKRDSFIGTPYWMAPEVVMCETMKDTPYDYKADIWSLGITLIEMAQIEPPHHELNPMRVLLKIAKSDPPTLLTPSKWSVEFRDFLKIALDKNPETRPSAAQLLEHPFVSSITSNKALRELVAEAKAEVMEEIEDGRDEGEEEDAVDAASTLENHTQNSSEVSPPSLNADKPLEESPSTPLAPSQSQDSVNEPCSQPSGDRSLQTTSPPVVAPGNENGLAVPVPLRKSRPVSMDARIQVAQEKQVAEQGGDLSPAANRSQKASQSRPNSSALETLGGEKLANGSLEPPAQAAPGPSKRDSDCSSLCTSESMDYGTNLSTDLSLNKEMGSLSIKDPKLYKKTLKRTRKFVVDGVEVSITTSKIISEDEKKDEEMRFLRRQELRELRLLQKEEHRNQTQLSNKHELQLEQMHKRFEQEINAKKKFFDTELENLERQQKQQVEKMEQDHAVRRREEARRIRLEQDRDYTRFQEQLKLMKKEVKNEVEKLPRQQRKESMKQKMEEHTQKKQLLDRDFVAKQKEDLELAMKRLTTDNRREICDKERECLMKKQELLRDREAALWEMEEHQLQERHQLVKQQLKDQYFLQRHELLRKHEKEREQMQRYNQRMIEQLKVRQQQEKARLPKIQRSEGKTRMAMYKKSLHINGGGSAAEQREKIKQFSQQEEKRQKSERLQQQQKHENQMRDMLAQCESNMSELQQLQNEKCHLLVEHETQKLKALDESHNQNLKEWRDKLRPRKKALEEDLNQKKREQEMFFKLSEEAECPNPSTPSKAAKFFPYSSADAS
# Sequence of ROCK2 (human) (O75116 whole entry, looked up): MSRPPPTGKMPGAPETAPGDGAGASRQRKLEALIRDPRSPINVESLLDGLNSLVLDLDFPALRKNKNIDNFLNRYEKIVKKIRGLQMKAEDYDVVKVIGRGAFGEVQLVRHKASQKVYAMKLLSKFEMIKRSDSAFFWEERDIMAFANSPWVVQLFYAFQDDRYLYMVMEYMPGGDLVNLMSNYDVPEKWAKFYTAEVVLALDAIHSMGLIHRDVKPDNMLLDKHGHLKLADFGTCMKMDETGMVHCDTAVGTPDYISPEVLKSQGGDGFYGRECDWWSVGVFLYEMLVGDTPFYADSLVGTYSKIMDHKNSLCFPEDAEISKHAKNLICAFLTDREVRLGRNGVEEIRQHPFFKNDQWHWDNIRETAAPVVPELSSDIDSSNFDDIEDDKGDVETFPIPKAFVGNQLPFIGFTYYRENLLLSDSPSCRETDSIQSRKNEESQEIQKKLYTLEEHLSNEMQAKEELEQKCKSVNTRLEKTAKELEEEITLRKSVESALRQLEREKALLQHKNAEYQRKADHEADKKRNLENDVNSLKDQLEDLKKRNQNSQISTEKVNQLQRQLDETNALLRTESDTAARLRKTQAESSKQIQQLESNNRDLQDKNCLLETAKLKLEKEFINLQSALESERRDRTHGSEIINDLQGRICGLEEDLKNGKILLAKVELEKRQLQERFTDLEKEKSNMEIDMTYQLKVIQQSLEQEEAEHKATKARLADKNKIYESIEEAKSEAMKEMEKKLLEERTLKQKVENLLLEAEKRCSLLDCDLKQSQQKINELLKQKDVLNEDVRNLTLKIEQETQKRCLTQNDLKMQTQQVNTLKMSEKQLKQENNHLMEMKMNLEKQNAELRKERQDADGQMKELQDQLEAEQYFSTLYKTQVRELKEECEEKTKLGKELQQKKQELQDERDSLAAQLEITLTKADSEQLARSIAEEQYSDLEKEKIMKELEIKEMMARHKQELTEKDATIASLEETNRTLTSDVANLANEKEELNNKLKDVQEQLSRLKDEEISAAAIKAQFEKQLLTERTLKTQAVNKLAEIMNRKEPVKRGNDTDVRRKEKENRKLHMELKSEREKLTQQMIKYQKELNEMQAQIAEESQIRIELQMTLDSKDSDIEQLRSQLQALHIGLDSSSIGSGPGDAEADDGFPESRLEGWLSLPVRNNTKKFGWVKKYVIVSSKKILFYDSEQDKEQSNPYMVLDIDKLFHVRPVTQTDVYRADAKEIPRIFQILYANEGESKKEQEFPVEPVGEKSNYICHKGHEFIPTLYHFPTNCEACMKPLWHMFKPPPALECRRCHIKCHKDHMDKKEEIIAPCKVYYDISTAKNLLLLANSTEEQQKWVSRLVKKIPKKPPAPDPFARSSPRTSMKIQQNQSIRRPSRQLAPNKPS
# Sequence of STK25 (human) (O00506 whole entry, looked up): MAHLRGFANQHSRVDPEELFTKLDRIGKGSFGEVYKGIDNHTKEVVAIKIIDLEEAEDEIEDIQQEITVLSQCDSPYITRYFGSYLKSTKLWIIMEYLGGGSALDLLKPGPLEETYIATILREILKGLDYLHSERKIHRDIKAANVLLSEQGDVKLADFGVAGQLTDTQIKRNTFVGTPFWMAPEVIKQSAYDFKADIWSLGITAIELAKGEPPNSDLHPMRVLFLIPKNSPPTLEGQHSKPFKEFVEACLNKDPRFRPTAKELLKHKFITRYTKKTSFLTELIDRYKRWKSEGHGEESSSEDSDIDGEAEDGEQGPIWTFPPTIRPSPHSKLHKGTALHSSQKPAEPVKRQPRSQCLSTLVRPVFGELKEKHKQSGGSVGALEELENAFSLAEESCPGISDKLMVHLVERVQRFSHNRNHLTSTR
smiles,measurement,setting,value
N#C/C(=C\c1ccc(O)c(O)c1)C(=O)NCc1ccccc1,residual activity,DSTYK (human),91%
same,residual activity,FYN (human),116%
same,residual activity,MINK1 (human),97.9%
same,residual activity,RPS6KA6 KD1 KD2 (human),108%
same,residual activity,NUAK1 (human),90%
same,residual activity,CAMK2B (human),102%
same,residual activity,[1],87.7%
same,residual activity,PTK2B (human),92.6%
same,residual activity,WNK2 (human),104%
same,residual activity,PHKG1 (human),92.6%
same,residual activity,[2],127%
same,residual activity,AKT1 (human),101%
same,residual activity,STK11 (human),97.4%
same,residual activity,NEK11 (human),95.4%
same,residual activity,CDK2 CCNA2 (human),99.2%
same,residual activity,MAP3K5 (human),104%
same,residual activity,ACVRL1 (human),106%
same,residual activity,FGFR3 (human),98.2%
same,residual activity,CAMK2A (human),100%
same,residual activity,PAK7 (human),96.1%
same,residual activity,ROCK2 (human),94%
same,residual activity,MERTK (human),89%
same,residual activity,MAPK14 (human),108%
same,residual activity,STK25 (human),101%
same,residual activity,BRSK1 (human),104%
same,residual activity,FGFR1 (human),92.8%
same,residual activity,ZAP70 (human),101%
same,residual activity,[3],97.1%
same,residual activity,DYRK4 (human),106%
same,residual activity,FRK (human),97.4%
same,residual activity,PAK4 (human),111%
same,residual activity,DYRK2 (human),103%
same,residual activity,MAPK8 (human),99.1%
same,residual activity,ITK (human),98.8%
same,residual activity,CLK1 (human),98.6%
same,residual activity,ABL2 (human),93.4%
same,residual activity,MAPK3 (human),106%
same,residual activity,GRK7 (human),103%
same,residual activity,STK10 (human),89.6%
same,residual activity,STK24 (human),100%
same,residual activity,NEK2 (human),102%
